Melting point data for 88 molecules are collected here from a melting point compilation (Tetko et al.; mined from patent text by program, amines drawn as free bases though some values may be those of a salt).

As a reminder, the melting point is the temperature of the solid-liquid transition. In turn, `CCOC(=O)c1cn(C2CC2)c2c(F)c(C#Cc3cc(Cc4cnc(N)nc4N)cc(OC)c3OC)c(F)cc2c1=O` displayed a melting point above 230 °C.
Take `CC(=O)c1c(C)[nH]c(-c2ccc(F)cc2)c1N`: the melting point lay in the range of 211 to 212 °C.
`Cn1c2ccc(F)cc2c(=O)n2nc(-c3nnn[nH]3)cc12` displayed a melting point of 350 to 360 °C.
As for `N#CC(C(=O)OC1CCCCC1)=C1Nc2ccccc2O1`, the figure is 143 to 145 °C; as for `CC(C)Oc1cc(CCCOc2c(CC(=O)O)ccc3ccccc23)n(Cc2ccc(Cl)cc2Cl)n1`, 96 to 98 °C; as for `CCCc1ccc2nnc(C(=O)OCC)cc2c1`, 88 to 89 °C.
In the case of `CC(C)OCC1(C(C)(F)F)c2cc(Cl)ccc2Nc2ncccc21` (stereo not drawn), the melting point lay within 148 to 149 °C.
The molecule `CCc1[nH]n(C2CCCC2)c2nc(-c3cc(C)nc(Cl)c3)nc(=O)c1-2` displayed a melting point of 277 to 278 °C.
As for `CNc1n[nH]c(=S)n1C`, the melting point was found to be 213 °C.
Then `O=CNCC1=CNCN1[C@H]1CCc2c(F)cc(F)cc2C1`, with 194 to 195 °C.
On to `CCc1nn(C2CCCC2)c2cc(C(=O)NCCc3ccncc3)ccc12`, for which the melting point was in the range of 123 to 126 °C.
The molecule `c1ccc(Cn2cc3c(c2)OCCO3)cc1` came in with a melting point of 69 to 70 °C.
Take `CN(C)c1n[nH]c(=O)n1N(C)C`: the melting point turned out to be 93 °C.
Molecule `CCCNC(=NS(=O)(=O)N(C)C)N1CC(c2ccccc2)C(c2ccc(Cl)cc2)=N1` (stereo not drawn) displayed a melting point of 127 to 129 °C.
As for `Cc1ccc2nc(NC(=N)N)[nH]c2c1C`, the figure is 122 to 124 °C; as for `CC(C)C(=O)Nc1ccc(I)c(C(F)(F)F)c1`, 143 to 145 °C.
With `COP(=O)(OC)C(C)NC(=O)C(C)NC(=O)C(C)NC(=O)CNC(C)(C)C` (stereo not drawn), the melting point lay in the range of 148 to 152 °C.
`COc1ccc(-c2csc(N)n2)cc1` yielded a melting point of 194 to 205 °C.
As for `COc1cn(-c2ccc(-n3cccn3)cc2F)nc(-c2ccnn2-c2cccc(Cl)c2)c1=O`, the figure is 186 to 190 °C; as for `O=S1c2ccc(F)cc2CCc2ccc(CO)cc21` (stereo not drawn), 181 to 183 °C.
In the case of `CC1(C)Oc2ccsc2C(N2CCCC2=O)C1O` (stereo not drawn), the melting point lay in the range of 154 to 155 °C.
On to `COCCOc1cc(NS(=O)(=O)c2ccccn2)c2[nH]c(C(=O)O)cc2c1`, for which the melting point was in the range of 230 to 232 °C.
With `CNCC(=O)NCC1Cc2cc(C)c3[nH]c(=O)ccc3c2O1` (stereo not drawn), the melting point fell in the range of 188 to 191 °C.
The molecule `NC(=O)c1nc(C2OC(CO)C(O)C2O)n[nH]1` (stereo not drawn) had a melting point of 193 to 195 °C.
`CCOc1nc(NCc2ccncc2)nc(Nc2ccc3cc[nH]c3c2)n1`: the melting point lay in the range of 198 to 200 °C.
On to `COc1cc2c(cc1OC)CCC(/C=C/C(=N)NO)=C2`, for which the melting point is 199 to 203 °C.
Then `FC(F)(F)c1ccc(-c2cc(C(F)(F)F)n3ncc(C#Cc4cncnc4)c3n2)cc1`, with 175 °C; and `CCc1cnc(C2=NC(C)(C(C)C)C(=O)N2)c(C(=O)NCCCCCC(=O)O)c1` (stereo not drawn), with 76 to 81 °C; and `O=c1[nH]c2cc(Cl)cc(Cl)c2c(=O)n1Cc1ccccc1F`, with 275 to 278 °C.
Then `CC(C)(C(=O)COc1cccc2ccccc12)C1OCCO1`, with 69 °C; and `CN(C)C(=O)c1cc(CN2C(=O)C3(COc4cc5c(cc43)OCO5)c3ccccc32)oc1C(F)(F)F` (stereo not drawn), with 96 to 98 °C.
`CC(C)(C)OC(=O)c1cc(N2CCOCC2)cc([N+](=O)[O-])c1` came in with a melting point of 116 to 118 °C.
`CCn1cnc(C(N)=O)c1NC(=S)NC(=O)c1ccccc1`: the melting point was in the range of 178 to 180 °C.
As for `COCON1C(=O)C(=C/c2ccccc2)/C(=C\c2cc(OC)c(OC)c(OC)c2)C1=O`, the figure is 175 to 177 °C; as for `COc1ccc(-c2ccc(C3=NOC(CNC(C)=O)C3)cc2)ccc1=O` (stereo not drawn), 104 to 105 °C.
For the molecule `O=c1c2c(Cl)cc(Cl)cc2n(Cc2ccccc2)c(=O)n1Cc1ccccc1F`, the melting point lay within 126 to 130 °C.
On to `Cc1ccsc1C(=O)Nc1ccc(C(=O)N2Cc3cccn3Cc3ccccc32)cc1`, for which the melting point was in the range of 232 to 235 °C.
As to `CS(=O)(=O)c1ccc(-c2cc(C(N)=O)nn2-c2ccc(C(=O)O)cc2)cc1`, the melting point lay within 292 to 293 °C.
Turning to `CCCCCC[C@@H]1C(=O)O[C@H]1OC(=O)N(CCCCC)c1ccccc1Oc1ccccc1` (relative stereo), the melting point lay in the range of 63.1 to 66.3 °C.
Then `Nc1ncc(-c2ccccc2F)nc1C(=O)Nc1cccnc1`, with 221 to 225 °C; and `Cc1cccc(N2CCN(CCc3ccc(NC(=O)NCCCCl)cc3)CC2)c1`, with 168 °C.
In turn, `CCC(OC)(c1ccc(OCc2cc3ccccc3[nH]c2=O)c(OC)c1)c1nccs1` (stereo not drawn) returned a melting point of 170 to 171 °C.
`N#CCC(=O)c1cc(F)c(F)c(F)c1F` came in with a melting point of 55 to 57 °C.
Regarding `COc1cc(Cl)cnc1OCC#Cc1ccc(Cl)cc1`, the melting point was in the range of 109 to 110 °C.
Molecule `CC(C)(C)OC(=O)Cn1cc(Cl)c(-c2cc(Cl)cc(Cl)c2)n1` came in with a melting point of 86 °C.
With `Nc1cc(-c2noc(-c3cnn4c(C(F)(F)F)cc(-c5ccc(Cl)c(Cl)c5)nc34)n2)ccn1`, the melting point is 262 °C.
Take `O=C(Nc1n[nH]c(=S)s1)NC(CC1CCCCC1)C(=O)NCCc1ccccc1` (stereo not drawn): the melting point fell in the range of 199 to 200 °C.
`O=C(CCC1CCCCC1)NC1N=C(c2ccccc2)c2ccccc2NC1=S` (stereo not drawn) displayed a melting point of 113 to 119 °C.
As for `COCC(COC)Nc1cc(C)nn2c(-c3ccc(Cl)cc3Cl)c(C)cc12`, the figure is 154 to 155 °C.
Then `CC(=O)OC1CCC2(C)C(=CC(=O)C3C4CC(OC(C)=O)C(=O)C4(C)CCC32)C1` (stereo not drawn), with 206 °C.
In turn, `CCOC(=O)c1cccc(NC(=O)NCC(=O)N2[C@@H](c3ccccc3)SC[C@H]2C(=O)OC(C)(C)C)c1` showed a melting point of 85 °C.
For `Cc1c(SCCCSc2ccncc2)ccnc1CSc1ccncc1`, the melting point lay within 116 to 118 °C.
As to `COc1nc(C)nc(NC(=O)NS(=O)(=O)c2ccccc2OC(F)(F)C(F)(F)F)n1`, the melting point lay in the range of 157 to 159 °C.
Consider `COCc1ccsc1-c1nsc2ccc(-n3c(=O)cc(C(F)(F)F)n(C)c3=O)cc12`, for which the melting point was 131 to 133 °C.
`Nc1ncc(Br)n2nc(SCc3ccccc3)nc12` showed a melting point of 149 to 150 °C.
As for `O=C(Nc1ccc(C(F)(F)F)cc1)N1CC(c2ncc(Cl)s2)C(c2ccc(F)cc2)=N1` (stereo not drawn), the melting point lay in the range of 188 to 189 °C.
Take `CCOC(=O)C12CCC(=O)N1CC(=O)N2` (stereo not drawn): the melting point was 116 °C.
`CC(C)(C)OC(=O)Nc1ccc2ccccc2c1Br` showed a melting point of 90 to 91 °C.
Take `CCOC(=S)SCc1cc(OC)nc(N)n1`: the melting point lay in the range of 91 to 93 °C.
`COC(=O)COc1cc(C(=O)OC)nc2ccccc12` gave a melting point of 121 to 123 °C.
For `CC(=O)Nc1ccc2c(c1)[nH]c(=O)c(=O)n2CP(=O)(O)O`, the melting point worked out at 120 °C.
In turn, `COc1ccccc1Sc1c(O)nc(C)[nH]c1=O` came in with a melting point of 290 °C.
In the case of `NCC(COC(C(F)(F)F)(C(F)(F)F)C(F)(F)F)(COC(C(F)(F)F)(C(F)(F)F)C(F)(F)F)C(=O)O`, the melting point lay within 182 to 184 °C.
For the molecule `OC(Cn1cncn1)(c1ccc(F)cc1F)C1(SC(F)(F)F)CC1` (stereo not drawn), the melting point came out at 103 °C.
As for `N#Cc1cnn2c1N(C(=O)CN1CCN(Cc3ccccc3F)CC1)CC=C2c1cccc(C(F)(F)F)c1`, the figure is 188 to 190 °C; as for `O=C(OCN1C(=O)c2ccccc2S1(=O)=O)c1ccncc1`, 145 to 146 °C; as for `O=C1C(=O)N(Cc2ccc(Nc3ncccn3)cc2)CCN1Cc1ccc(Nc2ncccn2)cc1`, 226 to 228 °C.
For `Cc1ccc2c(c1)C(O)(c1ccccn1)CC(C)(C)CO2` (stereo not drawn), the melting point is 126 °C.
In turn, `O=[N+]([O-])c1ccc(Oc2ccc(F)cc2F)cc1` displayed a melting point of 58 to 62 °C.
Then `Cc1nn(CC(F)(F)COC(=O)CN)c(-c2ccc(F)cc2)c1-c1ccc2c(c1)NC(=O)CO2`, with 142 to 146 °C.
Then `COC(=O)Cc1cc(C)c(C(=O)c2ccc(Cl)cc2)n1C`, with 122 to 125 °C; and `CCCCCCCCCCCCOc1cc(C#N)c(C#N)cc1OCCOCCOCCOC`, with 38 to 40 °C.
As to `N#CC(C#N)=C1N(CCCN2CCCCC2)CCN1C1CCN(Cc2ccccc2)CC1`, the melting point was in the range of 156 to 158 °C.
`CN(CCCNC(=O)CSc1nc2ccc(N(C)C)nc2s1)Cc1ccc(Cl)c(Cl)c1` showed a melting point of 92 to 93 °C.
On to `COc1ccc(Cc2cc3cccc(-c4cccc(C(=O)NCCN5CCCC5)c4)c3o2)cc1OC`, for which the melting point lay within 119 to 120 °C.
The molecule `Cn1c(COc2ccc(CC3SC(=O)NC3=O)cc2)nc2ccc(Oc3ccc(NC(=S)Nc4cccc5ccccc45)cc3)cc21` (stereo not drawn) yielded a melting point of 186 to 188 °C.
As to `O=C(c1ccccc1)c1ccc(CO)cc1`, the melting point lay within 59 to 61 °C.
As for `Cn1c(C(F)(F)F)cc(=O)n(-c2ccc3snc(COCC(=O)NS(C)(=O)=O)c3c2)c1=O`, the figure is above 240 °C; as for `CC(=O)OCc1ccc(N(c2ccccc2)c2ccc(C=CC=O)cc2)cc1`, 112 to 115 °C; as for `COC(=O)/C=C/c1cccc(-c2c(CC(=O)Nc3ccc(Cl)cc3C(F)(F)F)c(=O)oc3cc(Cl)c(C)cc23)c1`, 202 to 204 °C.
`C#C[C@@H](O)C1CCCCC1` displayed a melting point of 56 to 58 °C.
As for `O=C1Cc2ccnc(N3CCNCC3)c2N1`, the figure is 200 to 204 °C; as for `COc1ccc(C(=O)c2ccc(-c3ccc(Cl)cc3)nc2)cc1OC`, 168 to 170 °C.
Regarding `CSCOc1ccc(-c2coc3ccc(-c4nnc(C)o4)cc23)cc1`, the melting point lay in the range of 116 to 117 °C.
On to `CCOc1ccc(-c2ccc3c(c2)C=C(C(=O)Nc2ccc(CN(C)C4CCOCC4)cc2)CCS3(=O)=O)cc1Cl`, for which the melting point was 201 to 204 °C.
`CCCNCC(=O)N1c2ccccc2N2CCc3cccc(c32)C1C` (stereo not drawn) showed a melting point of 113 to 118 °C.
In the case of `COc1ccc2c(c1)C(C(=O)N(Cc1ccc(NCc3ccccc3)cc1)c1ccc(C(C)C)cc1)CCC2` (stereo not drawn), the melting point lay in the range of 135 to 138 °C.
Molecule `COC(=O)c1ncc(OCc2ccccn2)nc1NCc1ccc(OC)c(Cl)c1` yielded a melting point of 132 to 133 °C.
